Test results from ChEMBL document CHEMBL1145900, “Histone deacetylase inhibitors” (J Med Chem, 2003).
Converted amounts (≈) assume the structure as drawn.

Key:
Histone deacetylase [1] = test: Inhibitory concentration against human Histone deacetylase in Hela cells; assay type: cell-based
Plasmodium falciparum = test: Inhibitory concentration against Plasmodium falciparum […]; assay type: functional, organism-based
Histone deacetylase [2] = assay type: protein assay, Homo sapiens
Description: Inhibitory concentration against human histone deacetylase

Histone deacetylase [3] = test: Inhibitory concentration against isolated Histone deacetylase; assay type: protein assay, Homo sapiens
Histone deacetylase [4] = assay type: protein assay, Homo sapiens; remark: listed apart in the source
Description: Inhibitory concentration against histone deacetylase

Histone deacetylase [5] = molecular target: Histone deacetylase; parameters: species or system Rattus norvegicus
Description: Inhibitory concentration against rat liver Histone deacetylase

HT-1080 = test: cells; assay type: functional, cell-based; details: Homo sapiens
Description: Inhibitory concentration against HT1080 cells proliferation

MDA-MB-435 = test: cells; assay type: functional, cell-based; details: Homo sapiens
Description: Inhibitory concentration against MDA-435 cells proliferation

CC[C@H](C)[C@@H]1NC(=O)[C@H](Cc2cn(OC)c3ccccc23)NC(=O)[C@H](CCCCCC(=O)C(C)O)NC(=O)[C@H]2CCCCN2C1=O (stereo partly specified)
IC50 (Histone deacetylase [1]): 0.3 nM | IC50 (Plasmodium falciparum): 0.022 µg/mL (≈ 0.0344 µM)

CC[C@H](C)[C@@H]1NC(=O)[C@H](Cc2cn(OC)c3ccccc23)NC(=O)[C@H](CCCCCC(=O)C2CO2)NC(=O)[C@H]2CCCCN2C1=O (stereo partly specified)
IC50 (Histone deacetylase [1]): < 0.1 nM | IC50 (Plasmodium falciparum): < 0.015 µg/mL

O=C(/C=C/CCCCOc1ccc(-c2ccccc2)cc1)C(F)(F)F
IC50 (Histone deacetylase [2]): 5000 nM

O=C(NCCSSCCNC(=O)/C(Cc1ccc(O)c(Br)c1)=N/O)/C(Cc1ccc(O)c(Br)c1)=N/O [PSAMMAPLIN A]
IC50 (Histone deacetylase [3]): 4 nM

Cn1cc(C(=O)Cc2ccccc2)cc1C=C1C(=O)NC(=O)NC1=O
IC50 (Histone deacetylase [3]): 104000 nM

Cc1ccc(C(=O)c2cc(/C=C/C(=O)NO)n(C)c2)cc1
IC50 (Histone deacetylase [4]): 1900 nM

O=C(CCCCCCNC(=O)c1ccc2cc[nH]c2c1)NO
IC50 (Histone deacetylase [2]): 56.5 nM

CC[C@H](C)[C@@H]1NC(=O)[C@H](Cc2cn(OC)c3ccccc23)NC(=O)[C@H](CCCCC(=O)OC)NC(=O)[C@H]2CCCCN2C1=O
IC50 (Histone deacetylase [1]): 74 nM | IC50 (Plasmodium falciparum): > 1 µg/mL

COc1ccc(C(=O)c2cc(/C=C/C(=O)NO)n(C)c2)cc1
IC50 (Histone deacetylase [4]): 2900 nM

CC(C)C[C@H]1C(=O)N[C@H](C(=O)NCCCCCC(=O)NO)Cc2ccc(cc2)OCCCC[C@H]1C(=O)OC(C)(C)C
IC50 (Histone deacetylase [5]): 2100 nM

O=C(CCCCCN1C(=O)c2ccccc2C1=O)NO
IC50 (Histone deacetylase [5]): 515 nM

O=C(NO)c1ccc(CNC(=O)c2ccc3ccccc3c2)cc1
IC50 (Histone deacetylase [4]): 44 nM

Cn1cc(C(=O)/C=C/c2ccccc2)cc1/C=C/C(=O)NO
IC50 (Histone deacetylase [4]): 1000 nM

Cn1cc(C(=O)c2ccc(Cl)cc2)cc1/C=C/C(=O)NO
IC50 (Histone deacetylase [4]): 2400 nM

CC[C@H](C)[C@@H]1NC(=O)[C@H](Cc2cn(OC)c3ccccc23)NC(=O)[C@H](CCCCCC(=O)NO)NC(=O)[C@H]2CCCCN2C1=O
IC50 (Histone deacetylase [1]): 0.2 nM | IC50 (Plasmodium falciparum): 0.00024 µg/mL (≈ 0.000383 µM)

O=C(CCCCCCNC(=O)c1cc2cc(F)ccc2[nH]1)NO
IC50 (Histone deacetylase [2]): 5.4 nM

Cn1cc(C(=O)c2ccc(F)cc2)cc1/C=C/C(=O)NO
IC50 (Histone deacetylase [4]): 3800 nM

O=C(O)C(=O)NCCSSCCNC(=O)/C(Cc1ccc(O)c(Br)c1)=N/O
IC50 (Histone deacetylase [3]): 2 nM

Cn1cc(C(=O)c2ccccc2)cc1/C=C/C#N
IC50 (Histone deacetylase [3]): 70000 nM

O=C(CCCCCNC(=O)c1ccc(Cl)cc1)NO
IC50 (Histone deacetylase [5]): 369 nM

CC1c2ccccc2CC1C(=O)NCCCCCCC(=O)NO (stereo unspecified)
IC50 (Histone deacetylase [2]): 732 nM

O=C(CCCCCCNC(=O)c1cc2ccccc2[nH]1)NO
IC50 (HT-1080): 140 nM | IC50 (Histone deacetylase [2]): 14.6 nM | IC50 (MDA-MB-435): 150 nM

CC(C)C[C@@H]1CC(=O)N([C@@H](Cc2ccccc2)C(=O)NCCCCCC(=O)NO)C1=O
IC50 (MDA-MB-435): 670 nM

CC[C@H](C)[C@@H]1NC(=O)[C@H](Cc2cn(OC)c3ccccc23)NC(=O)[C@H](CCCCCC(=O)OC)NC(=O)[C@H]2CCCCN2C1=O
IC50 (Histone deacetylase [1]): 0.4 nM | IC50 (Plasmodium falciparum): 0.21 µg/mL (≈ 0.336 µM)

CN(C)c1ccc(C(=O)NCCCCCCC(=O)NO)cc1
IC50 (Histone deacetylase [5]): 46 nM

COc1ccc2oc(C(=O)NCCCCCCC(=O)NO)cc2c1
IC50 (Histone deacetylase [2]): 15 nM

O=C(CCCCCCNC(=O)c1ccc[nH]1)NO
IC50 (Histone deacetylase [2]): 524 nM

CN(C)c1ccc(C(=O)c2cc(/C=C/C(=O)NO)n(C)c2)cc1
IC50 (Histone deacetylase [4]): 2400 nM

O=C(CCCCCNC(=O)c1ccc([N+](=O)[O-])cc1)NO
IC50 (Histone deacetylase [5]): 1566 nM

CN(C)c1ccc(C(=O)NCCCCCCCC(=O)NO)cc1
IC50 (Histone deacetylase [5]): 145 nM

O=C(NO)c1ccc(CNC(=O)c2cccc3ccccc23)cc1
IC50 (Histone deacetylase [4]): 830 nM

COc1cc(OC)c2cc(C(=O)NCCCCCCC(=O)NO)[nH]c2c1
IC50 (Histone deacetylase [2]): 3.1 nM

CC(C)n1cc(C(=O)c2ccccc2)cc1/C=C/C(=O)NO
IC50 (Histone deacetylase [4]): 53000 nM

O=C(CCCCCCC(=O)C(F)(F)F)Nc1cccc(-c2ccccc2)c1
IC50 (Histone deacetylase [2]): 380 nM

O=C(/C=C/c1cc(C(=O)c2ccccc2)c[nH]1)NO
IC50 (Histone deacetylase [4]): 5000 nM

CCC(=O)C(F)CCCC[C@@H]1NC(=O)[C@H]2CCCCN2C(=O)[C@H]([C@@H](C)CC)NC(=O)[C@H](Cc2cn(OC)c3ccccc23)NC1=O (stereo partly specified)
IC50 (Histone deacetylase [1]): 110 nM | IC50 (Plasmodium falciparum): 0.7 µg/mL (≈ 1.09 µM)

Cn1cc(C(=O)c2ccccc2)cc1/C=C/C(=O)NO
IC50 (Histone deacetylase [4]): 3800 nM

O=C(NCC1CCC(C(=O)NO)CC1)c1ccc(-c2ccccc2)cc1 (stereo unspecified)
IC50 (Histone deacetylase [4]): 310 nM

O=C(CCCCCCNC(=O)c1cc2cc(Cl)ccc2o1)NO
IC50 (Histone deacetylase [2]): 15 nM

CC[C@H](C)[C@@H]1NC(=O)[C@H](Cc2cn(OC)c3ccccc23)NC(=O)[C@H](CCCCCC(=O)C(C)F)NC(=O)[C@H]2CCCCN2C1=O (stereo partly specified)
IC50 (Histone deacetylase [1]): 1 nM | IC50 (Plasmodium falciparum): 0.028 µg/mL (≈ 0.0436 µM)

O=C(CCCCCCNC(=O)c1cccc2[nH]ccc12)NO
IC50 (Histone deacetylase [2]): 80.3 nM

O=C(CCCCCCNC(=O)c1cccc2cc[nH]c12)NO
IC50 (Histone deacetylase [2]): 41 nM

Cn1cc(C(=O)c2ccc([N+](=O)[O-])cc2)cc1/C=C/C(=O)NO
IC50 (Histone deacetylase [4]): 3900 nM

O=C(CCCCCNC(=O)[C@H](Cc1ccccc1)N1C(=O)CCC1=O)NO
IC50 (MDA-MB-435): 10000 nM

O=C(NO)c1ccc(CNC(=O)c2ccc(-c3ccccc3)cc2)cc1
IC50 (Histone deacetylase [4]): 240 nM

Cn1cc(C(=O)c2ccccc2)cc1CCC(=O)NO
IC50 (Histone deacetylase [4]): 36800 nM

CC[C@H](C)[C@@H]1NC(=O)[C@H](Cc2cn(OC)c3ccccc23)NC(=O)[C@H](CCCCCC(=O)O)NC(=O)[C@H]2CCCCN2C1=O
IC50 (Histone deacetylase [1]): 15 nM | IC50 (Plasmodium falciparum): > 1 µg/mL

COc1ccc2[nH]c(C(=O)NCCCCCCC(=O)NO)cc2c1
IC50 (Histone deacetylase [2]): 6.5 nM

O=C(CCCCCCNC(=O)c1c[nH]c2ccccc12)NO
IC50 (Histone deacetylase [2]): 37.5 nM

O=C(CCCCCNC(=O)c1ccc(-c2ccccc2)cc1)NO
IC50 (Histone deacetylase [5]): 265 nM

O=C(CCCCCCC(=O)c1ccccc1)NO
IC50 (Histone deacetylase [5]): 270 nM

O=C(CCCCCCNC(=O)C1Cc2ccccc2O1)NO (stereo unspecified)
IC50 (HT-1080): 760 nM | IC50 (Histone deacetylase [2]): 29.6 nM | IC50 (MDA-MB-435): 490 nM

O=C(CCCCCCNC(=O)c1ccc2[nH]ccc2c1)NO
IC50 (Histone deacetylase [2]): 31.4 nM

O=C(CCCCCCNC(=O)c1cc2cc(Br)ccc2[nH]1)NO
IC50 (Histone deacetylase [2]): 3.5 nM

O=C(/C=C/c1cc(C(=O)c2ccccc2)cn1-c1ccccc1)NO
IC50 (Histone deacetylase [4]): 110000 nM

COc1cccc2[nH]c(C(=O)NCCCCCCC(=O)NO)cc12
IC50 (Histone deacetylase [2]): 3.1 nM

COC(=O)NCCSSCCNC(=O)/C(Cc1ccc(O)c(Br)c1)=N/O [PSAMMAPLIN D]
IC50 (Histone deacetylase [3]): 44 nM

CC[C@H](C)[C@@H]1NC(=O)[C@H](Cc2cn(OC)c3ccccc23)NC(=O)[C@H](CCCCCCC(=O)OC)NC(=O)[C@H]2CCCCN2C1=O
IC50 (Histone deacetylase [1]): 7 nM | IC50 (Plasmodium falciparum): 0.5 µg/mL (≈ 0.782 µM)

CCOC(=O)NCCSSCCNC(=O)/C(Cc1ccc(O)c(Br)c1)=N/O
IC50 (Histone deacetylase [3]): 79 nM

Cn1cc(C(=O)Cc2ccccc2)cc1C=C1C(=O)NC(=S)NC1=O
IC50 (Histone deacetylase [3]): 85000 nM

NC(=O)C(=O)NCCSSCCNC(=O)/C(Cc1ccc(O)c(Br)c1)=N/O [PSAMMAPLIN E]
IC50 (Histone deacetylase [3]): 330 nM

CN(C)c1ccc(C(=O)NCCCCC(=O)NO)cc1
IC50 (Histone deacetylase [5]): > 10000 nM

CCC[C@H]1C(=O)N([C@@H](Cc2ccccc2)C(=O)NCCCCCC(=O)NO)C(=O)[C@@H]1CC(C)C
IC50 (MDA-MB-435): 570 nM

CN(C)c1ccc(C(=O)NCCCCCC(=O)NO)cc1
IC50 (Histone deacetylase [5]): 244 nM

CCC[C@H]1C(=O)N([C@@H](Cc2ccc(OC)cc2)C(=O)NCCCCCC(=O)NO)C(=O)[C@@H]1CC(C)C
IC50 (MDA-MB-435): 180 nM

O=C(CCCCCCNC(=O)c1ccccn1)NO
IC50 (Histone deacetylase [2]): 1680 nM

O=C(CCCCCCNC(=O)c1ccccc1)NO
IC50 (Histone deacetylase [2]): 1006 nM

Cn1cc(C(=O)c2ccccc2)cc1/C=C/C(=N)N
IC50 (Histone deacetylase [3]): 23000 nM
